This data set can be described thus: in vitro. Conditions: human, hela cells, % viability.

As a reminder, the viability is a read-out of living cells in per cent, often relative to untreated cells.

For the compound `CCOC(=O)c1c(-c2ccc(-c3ccccc3)cc2)csc1NC(=O)c1ccccc1C(=O)O` [CBK296096], the viability at 28.5 h, 10 µM came to 106%.
Same read-out and setting: the same measure for `CC(=O)N1CCC[C@H]2NC(=O)CNC(=O)C3(C/C=C/C[C@H]21)CCN(CC1CCC1)CC3` [CBK292129]: 103%.
Still for that read-out and setting: the figure for `O=C(Nc1ccc2nc(CN3CCOCC3)[nH]c2c1)C1CCCCC1` [CBK305728] is 80.5%.
Same read-out and setting: the same measure for `COc1cccc(C2(NC(=O)CCn3cccn3)CCCC2)c1` [CBK283660]: 94.5%; for `COc1cc(/C=C(/C#N)C(N)=O)cc(Br)c1O` [CBK017409]: 88.1%.
With `CC(CCc1ccccc1)N1CCN(S(=O)(=O)c2ccc3ccccc3c2)CC1` (stereo not shown) [CBK264240], the viability at 28.5 h, 10 µM is 104%.
Same read-out and setting: the same measure for `O=C(O)c1ccc(C2(c3ccc(C(=O)O)cc3)OC(=O)c3ccccc32)cc1` [CBK261150]: 98.2%; for `Cc1ccc(OCC(=O)NC(=S)Nc2cc(-c3nc4ncccc4o3)ccc2Cl)cc1` [CBK265214]: 103%.
As for `C[N+]1(c2ccccc2)CCC(N)=N1` (stereo not shown) [CBK262213I], the viability at 28.5 h, 10 µM stood at 91.8%.
Same read-out and setting: the same measure for `Cc1ccc(C)c(C2CCCN2C(=O)c2cccn(CC(=O)NC3CCCCC3)c2=O)c1` (stereo not shown) [CBK286010]: 93%; for `CCc1c(C)nn(-c2ccccc2Br)c1-c1ccccc1` [CBK016757]: 87.9%.
Same read-out and setting: the same measure for `CCN(c1ccccc1C(=O)O)S(=O)(=O)/C=C/c1ccccc1` [CBK287236]: 96.7%.
The same measure, in the same setting: the figure for `CN1CCC(N2CCN(C(=O)c3cncc(-c4[nH]nnc4-c4ccccc4)c3)CC2)CC1` [CBK160327] is 98.3%; for `CC1CN(C(C)N2CC(C)OC2=O)C(=O)O1` (stereo not shown) [CBK022981] it is 89.8%.
`CC1CCCCN1C(=O)CCn1c(C(F)F)cc2cccnc21` (stereo not shown) [CBK285024]: the viability at 28.5 h, 10 µM was found to be 89.5%.
Still for that read-out and setting: the figure for `c1ccc(Nc2[nH]nnc2-c2ccccc2)cc1` [CBK261015] is 116%; for `CC(=O)c1cccc(NC(=O)Cn2ncc(N3CCCC3)c(Cl)c2=O)c1` [CBK304395] it is 89.5%.
Still for that read-out and setting: the same measure for `CC(C)(C)OC(=O)N[C@@H]1C(=O)OC(C(O)CO)[C@@H]1O` (stereo partly shown) [CBK008178]: 118%; for `O=C(O)CCCCCNc1ncnc2sc3c(c12)CCCC3` [CBK077446]: 102%; for `O=C(O)c1ccccc1C(=O)N1CCN(c2ccc([N+](=O)[O-])cc2)CC1` [CBK287181]: 87.7%.
On the same count and under the same terms, the figure for `CC(C)n1nccc1NC(=O)CCn1c(C(F)F)cc2cccnc21` [CBK284690] is 99.3%; for `CC(=O)Nc1ccc(S(=O)(=O)NC2(C(F)(F)F)C(=O)Nc3c2c(=O)[nH]c(=O)n3CCc2ccccc2)cc1` (stereo not shown) [CBK267937] it is 104%.
On to `CCC1CCCCN1C(=O)c1ccc(C)c(OC)c1` (stereo not shown) [CBK081557], for which the viability at 28.5 h, 10 µM worked out at 103%.
Still for that read-out and setting: the same measure for `COc1cc(NC(=O)CCc2ccccc2)nc(OC)n1` [CBK072282]: 79.5%; for `COc1cc(-c2cn3ccnc3c(NC3CC3)n2)cc(OC)c1OC` [CBK066184]: 90%.
Regarding `O=C(NC1CCCC1)c1ccc(-c2cnc3[nH]c(=O)n(C4CCCCC4)c3n2)cc1` [CBK064582], the viability at 28.5 h, 10 µM is 113%.
On the same count and under the same terms, the figure for `Cn1cc(N2CCC(NC(=O)c3ccc(C#N)cc3)C2=O)cn1` (stereo not shown) [CBK305182] is 94%.
The same measure, in the same setting: the same measure for `c1ccc(-c2cccc(-c3cc(N4CCN(CCN5CCCC5)CC4)ncn3)c2)cc1` [CBK091164]: 99.7%.
For the compound `Cc1cc(C)cc(N(CCC#N)C(=O)CSc2nnc[nH]2)c1` [CBK296955], the viability at 28.5 h, 10 µM stood at 101%.
As for `COc1ccc2oc(=O)c(C(=O)Nc3ccc(C(=O)O)cc3)cc2c1` [CBK262242], the viability at 28.5 h, 10 µM was found to be 98.4%.
The same measure, in the same setting: the figure for `O=C(CNS(=O)(=O)c1ccc(Br)cc1)NCc1cccnc1` [CBK266295] is 97.2%; for `CCC1CNCCN1c1nccnc1OCCOc1cccnc1` (stereo not shown) [CBK001559F] it is 121%; for `CC1(C)CC(=O)c2sc(NC(=O)c3cccc(C(F)(F)F)c3)nc2C1` [CBK019941] it is 94.2%.
On the same count and under the same terms, the same measure for `O=C(NCc1ccc(OC2CCNCC2)cc1)c1ccccn1` [CBK036361T]: 93.1%.
The same measure, in the same setting: the figure for `CCOC(=O)CC1C(=O)NCCN1C/C=C\c1ccccc1OC` (stereo not shown) [CBK269791] is 94.3%; for `CC(CN(C)C(=O)Cn1cccc(C(=O)Nc2ccc(F)cc2)c1=O)c1ccccc1` (stereo not shown) [CBK286065] it is 92.5%.
Regarding `O=c1[nH]c2ncc(-c3cncc4ccccc34)nc2n1CCCO` [CBK064814], the viability at 28.5 h, 10 µM was determined as 96%.
For the compound `Cc1ccn2c(C(=O)N(C)CCc3noc(C(C)C)n3)nnc2n1` [CBK306670], the viability at 28.5 h, 10 µM amounted to 89.3%.
The same measure, in the same setting: the same measure for `O=C(Nc1ccccc1)c1ccccc1OCc1ccc(S(=O)(=O)N2CCOCC2)cc1` [CBK267396]: 92.8%; for `O=C(O)CCCC(=O)N1N=C(c2cccs2)CC1c1cn(-c2ccccc2)nc1-c1ccccc1` (stereo not shown) [CBK296124]: 90.3%; for `Cc1cc2cc3n(c2nn1)N=C(Cl)CC3` [CBK019458]: 91.4%.
The same measure, in the same setting: the figure for `COCC(C)NC(=O)Cn1cccc2cc(C(F)F)nc1-2` (stereo not shown) [CBK285011] is 104%.
Same read-out and setting: the same measure for `O=C(NCc1nnc(-c2cccs2)o1)c1ccccc1-c1ccccc1` [CBK286293]: 112%.
As to `Cn1cc(C(=O)NC(Cc2ccsc2)c2cccnc2)cn1` (stereo not shown) [CBK285118], the viability at 28.5 h, 10 µM stood at 99.9%.
Still for that read-out and setting: the same measure for `CCOC(=O)c1cnc2ccc(Br)cc2c1NCc1cccnc1` [CBK265030]: 83.5%.
Take `Cc1ccc(CCP(=O)(O)CN2CCOCC2)cn1` [CBK022176]: the viability at 28.5 h, 10 µM was determined as 109%.
Regarding `CCc1ccc(Oc2c[nH]nc2-c2ccc(OCc3cnn(-c4ccccc4)c3)cc2O)cc1` [CBK266233], the viability at 28.5 h, 10 µM worked out at 91.4%.
`O=C(CN1C(=O)N2CCN=C2c2ccccc21)NC1CC1` [CBK283958]: the viability at 28.5 h, 10 µM was 93.1%.
Still for that read-out and setting: the same measure for `CCN(CC(=O)NCc1ccc(F)cc1)S(=O)(=O)c1ccccc1C#N` [CBK305842]: 91.1%; for `Cc1nn(Cc2ccccc2)c(C)c1C(=O)N(C)C` [CBK015942]: 104%; for `O=C(CSc1nnc(CN2CCOCC2)n1-c1ccc(Cl)cc1)N1CCN(c2ccccc2)CC1` [CBK269088]: 96.9%.
In the case of `COc1ccc(N2CCN(c3cncc(-c4ccc(C(N)=O)cc4)n3)CC2)cc1OC` [CBK065820], the viability at 28.5 h, 10 µM was found to be 93.8%.
In the case of `Cc1c(CN2CCCC2(C)C(=O)NC2CCCC2)cnn1C` (stereo not shown) [CBK281960], the viability at 28.5 h, 10 µM is 108%.
On the same count and under the same terms, the figure for `CN(Cc1ccc2c(c1)OCCO2)C(=O)CSc1n[nH]c(=O)n1Cc1ccccc1` [CBK297876] is 82.1%; for `COc1cc(CNc2ccc3[nH]c(=O)[nH]c3c2)cc(Br)c1OCC(=O)NC(C)(C)C` [CBK266596] it is 57%; for `O=C(c1ccccc1)N1C[C@H](c2ccsc2)[C@H]2CN(Cc3cccs3)CC[C@H]21` [CBK285623] it is 95.8%.
On to `COc1ccc(OC(C)C(=O)Nc2ccc(C(=O)O)cc2)cc1` (stereo not shown) [CBK263622], for which the viability at 28.5 h, 10 µM amounted to 101%.
On the same count and under the same terms, the figure for `O=C(Nc1ccc(-c2ccoc2)cc1C(=O)O)OCc1ccc([N+](=O)[O-])cc1` [CBK000141D] is 98.9%; for `CN1CCN(c2ccc(NC(=S)NC(=O)c3cc4ccccc4o3)cc2)CC1` [CBK266240] it is 95.5%.
Same read-out and setting: the same measure for `COc1ccccc1C1(NCc2cnn(C)c2)CCCC1` [CBK282744]: 97%.
Consider `O=C(O)Cn1cc(C(=O)c2cccs2)c2ccccc21` [CBK287110], for which the viability at 28.5 h, 10 µM (bulk resorufin, single well) was found to be 91.9%.
`O=C(Nc1sc2c(c1CN1CCCCCC1)CCCC2)c1ccccc1` [CBK261811]: the viability at 28.5 h, 10 µM amounted to 91%.
Same read-out and setting: the same measure for `O=C1COc2ccc(S(=O)(=O)NCCc3ccccc3)cc2N1` [CBK270162]: 114%.
Still for that read-out and setting: the figure for `CCN(CC)C(=O)C1CCCN(C(=O)Nc2cccc(OC)c2)C1` (stereo not shown) [CBK005159] is 92.9%; for `O=C(O)/C=C/C(=O)NN1C(=O)c2ccccc2C1=O` [CBK286962] it is 86.9%; for `COc1cc(/C=N/Nc2nc(-c3ccccc3)cc(-c3ccc(OC)c(OC)c3)n2)ccc1O` [CBK262841] it is 52.2%.
`CCn1cc(S(=O)(=O)NCC2(c3ccccc3)CCCC2)cn1` [CBK282768]: the viability at 28.5 h, 10 µM is 97.2%.
Still for that read-out and setting: the same measure for `O=C(O)C(CCCCN1C(=O)c2ccccc2C1=O)N1C(=O)c2ccccc2C1=O` (stereo not shown) [CBK265250]: 91.7%; for `Fc1cccc(-c2nc3cnccn3c2NCc2cccs2)c1` [CBK282363]: 97.5%.
In the case of `Cn1nc(C(=O)NCC2(c3cccc(F)c3)CCCC2)ccc1=O` [CBK281437], the viability at 28.5 h, 10 µM came out at 86.9%.
The same measure, in the same setting: the same measure for `CC1(C)COC(=O)N1C1CCN(C(=O)c2cncc(Br)c2)CC1` [CBK038781]: 81.6%; for `O=C(c1ccccc1F)N1CCN(C(=O)[C@@H]2C[C@@H]3C=C[C@H]2C3)CC1` [CBK282011]: 89.1%; for `Cc1ccc(OCC(=O)Nc2ncc(C(F)(F)F)cc2Cl)c(Br)c1` [CBK266426]: 95.1%.
Same read-out and setting: the same measure for `CCCc1nn(CC(=O)N(CC)CC)c(=O)c2cc3ccsc3n12` [CBK284192]: 81.3%; for `CC(=O)N1CCC[C@H]2NC(=O)CNC(=O)C3(C/C=C/C[C@H]21)CCN(c1ncccn1)CC3` [CBK292042]: 110%; for `CC[C@@H]1C(=O)OC[C@@H]1Cc1cncn1C` [CBK005338C]: 85.3%.
For the compound `Cc1c(NCc2ccccn2)cccc1C(=O)O` [CBK269651], the viability at 28.5 h, 10 µM amounted to 86.9%.
The same measure, in the same setting: the same measure for `Nc1cc(O)n(Cc2ccco2)c(=S)n1` [CBK006010]: 99.9%.
Still for that read-out and setting: the same measure for `COC(=O)CCn1c(=O)c2c(nc3oc(C(C)(C)C)cn32)n(C)c1=O` [CBK306034]: 87.7%.

These data come from publication PMC12040169 (PLOS Biology, 2025).
